Target: MAPK14 (human) (UniProt Q16539)
Assay: Inhibition of MAPK14 Kinase Activity

MAPK14 (human), sequence (Q16539 whole entry, looked up): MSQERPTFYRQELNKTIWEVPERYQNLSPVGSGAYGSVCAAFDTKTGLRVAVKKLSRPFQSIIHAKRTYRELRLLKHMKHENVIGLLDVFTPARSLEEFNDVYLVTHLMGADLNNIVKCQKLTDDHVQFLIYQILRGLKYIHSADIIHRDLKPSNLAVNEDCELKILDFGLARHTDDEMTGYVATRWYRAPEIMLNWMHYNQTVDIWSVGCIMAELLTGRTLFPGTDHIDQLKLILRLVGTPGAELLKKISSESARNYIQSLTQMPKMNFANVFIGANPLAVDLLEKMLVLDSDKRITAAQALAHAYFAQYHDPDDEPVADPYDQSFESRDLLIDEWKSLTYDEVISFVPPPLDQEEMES

Compound | IC50 [µM]
O=C1CCC(Sc2ccc(F)cc2F)CN1c1c(Cl)sc(CO)c1Cl (configuration not stated) | ≤ 10
O=C1CCC(Oc2ccccc2)CN1c1c(Cl)cncc1Cl (configuration not stated) | ≤ 10
O=C1CSC(Cc2ccc3ccccc3c2)CN1c1c(Cl)cccc1Cl (configuration not stated) | ≤ 10
O=C1CSC(Cc2cc(F)cc(F)c2)CN1c1c(Cl)cccc1Cl (configuration not stated) | ≤ 10
COc1ccccc1CC1CCC(=O)N(c2c(Cl)ccnc2Cl)C1 (configuration not stated) | ≤ 10
COc1ccccc1SC1CCC(=O)N(C2C(Cl)CCCC2Cl)C1 (configuration not stated) | ≤ 10
O=C1NCC(Cc2ccc(F)cc2)CN1c1c(Cl)cccc1Cl (configuration not stated) | ≤ 10
COc1ccccc1CC1CCC(=O)N(c2c(Cl)cncc2Cl)C1 (configuration not stated) | ≤ 10
Cc1ccc(OC2CCC(=O)N(c3c(Cl)csc3Cl)C2)c(C)c1 (configuration not stated) | ≤ 10
Cc1ccc(CC2CCC(=O)N(c3c(Cl)csc3Cl)C2)cc1 (configuration not stated) | ≤ 10
CC(C)(C)OC(=O)N1CCC(Nc2cc(Cl)c(N3CC(Cc4ccc(F)cc4F)CCC3=O)c(Cl)c2)CC1 (configuration not stated) | ≤ 10
Cc1cc(C)cc(OC2CCC(=O)N(c3c(Cl)cccc3Cl)C2)c1 (configuration not stated) | ≤ 10
O=C(O)c1cc(Cl)c(N2CC(Cc3ccc(F)cc3F)CCC2=O)c(Cl)c1 (configuration not stated) | ≤ 10
O=C1CCC(Sc2ccc(Cl)cc2)CN1C1C(Cl)CCCC1Cl (configuration not stated) | ≤ 10
O=C1OCC(Cc2ccccc2Cl)CN1c1c(Cl)cccc1Cl (configuration not stated) | ≤ 10
COC(=O)c1cc(C)c(N2CC(Cc3ccc(F)cc3F)CCC2=O)c(Cl)c1 (configuration not stated) | ≤ 10
Cc1ccc(SC2CCC(=O)N(c3c(Cl)ccnc3Cl)C2)cc1 (configuration not stated) | ≤ 10
CN(C(=O)Cc1ccccc1)c1cc(Cl)c(N2CC(Cc3ccc(F)cc3F)CCC2=O)c(Cl)c1 (configuration not stated) | ≤ 10
COc1ccccc1CC1CNC(=O)N(c2c(Cl)cccc2Cl)C1 (configuration not stated) | ≤ 10
COC(=O)/C=C/c1ccccc1CC1CCC(=O)N(c2c(Cl)cccc2Cl)C1 (configuration not stated) | ≤ 10
O=C1CCC(Cc2ccccc2)CN1c1c(Cl)cccc1Cl (configuration not stated) | ≤ 10
CN1CC(Cc2ccc(F)cc2F)CN(c2c(Cl)ccc(O)c2Cl)C1=O (configuration not stated) | ≤ 10
O=C1CCC(Sc2ccc3ccccc3c2)CN1C1C(Cl)CCCC1Cl (configuration not stated) | ≤ 10

Compound | IC50 [µM]
O=C1CCC(Sc2cccc3ccccc23)CN1c1c(Cl)cccc1Cl (configuration not stated) | ≤ 10
Cc1cc(C(=O)O)cc(C)c1N1CC(Cc2ccc(F)cc2F)CNC1=O (configuration not stated) | ≤ 10
O=C1CSC(Cc2ccc(Cl)cc2Cl)CN1c1c(Cl)cccc1Cl (configuration not stated) | ≤ 10
CC(C)(C)OC(=O)N(CCO)c1cc(Cl)c(N2CC(Cc3ccc(F)cc3F)CCC2=O)c(Cl)c1 (configuration not stated) | ≤ 10
O=C1CCC(Oc2ccc(F)cc2F)CN1c1c(Cl)cc(O)nc1Cl (configuration not stated) | ≤ 10
Cc1cc(C#CCCN2CCOCC2)cc(C)c1N1CC(Cc2ccc(F)cc2F)CCC1=O (configuration not stated) | ≤ 10
Cc1cc(C)cc(CC2CN(c3c(Cl)cccc3Cl)C(=O)CS2)c1 (configuration not stated) | ≤ 10
O=C1NCC(Cc2ccc(F)cc2F)CN1c1c(Cl)cc(CO)cc1Cl (configuration not stated) | ≤ 10
CN1CC(Cc2ccc(F)cc2F)CN(c2c(Cl)cccc2Cl)C1=O (configuration not stated) | ≤ 10
O=C1CCC(Cc2ccc([N+](=O)[O-])cc2)CN1c1c(Cl)cccc1Cl (configuration not stated) | ≤ 10
O=C1CCC(Cc2cc(Cl)cc(Cl)c2)CN1c1c(Cl)cncc1Cl (configuration not stated) | ≤ 10
CC(=O)Nc1ccc(Cl)c(N2CC(Cc3ccc(F)cc3F)OCC2=O)c1Cl (configuration not stated) | ≤ 10
CNc1cc(Cl)c(N2CC(Cc3ccc(F)cc3F)CN(C)C2=O)c(Cl)c1 (configuration not stated) | ≤ 10
CN1CC(Cc2ccccc2Cl)CN(c2c(Cl)cccc2Cl)C1=O (configuration not stated) | ≤ 10
O=C1OCC(Cc2ccc(Cl)cc2Cl)CN1c1c(Cl)cccc1Cl (configuration not stated) | ≤ 10
O=C1CCC(Oc2ccc(F)cc2F)CN1c1c(Cl)ncc(O)c1Cl (configuration not stated) | ≤ 10
O=C1CCC(Cc2ccc(Cl)cc2)CN1c1c(Cl)ccnc1Cl (configuration not stated) | ≤ 10
O=C1SCC(Cc2ccccc2)CN1c1c(Cl)cccc1Cl (configuration not stated) | ≤ 10
O=C1CCC(Sc2ccc(F)cc2F)CN1c1c(Cl)ncc(O)c1Cl (configuration not stated) | ≤ 10
CN(C)CCCCc1cc(Cl)c(N2CC(Cc3ccc(F)cc3F)CCC2=O)c(Cl)c1 (configuration not stated) | ≤ 10
Cc1cc(C(=O)NCCN(C)C)cc(C)c1N1C[C@@H](Cc2ccc(F)cc2F)C[C@@H](C)C1=O | ≤ 10
O=C1OCC(Cc2ccc(F)cc2F)CN1c1c(Cl)cccc1Cl (configuration not stated) | ≤ 10
O=C1CCC(Oc2ccc3ccccc3c2)CN1c1c(Cl)csc1Cl (configuration not stated) | ≤ 10

Compound | IC50 [µM]
CC(=O)Nc1ncc(Cl)c(N2CC(Sc3ccc(F)cc3F)CCC2=O)c1Cl (configuration not stated) | ≤ 10
O=C1CCC(Cc2ccc(F)cc2F)CN1C1CCCCC1 (configuration not stated) | ≤ 10
CC(=O)Nc1ccc(Cl)c(N2CC(Cc3ccc(F)cc3F)CNC2=O)c1Cl (configuration not stated) | ≤ 10
O=C1CCC(Cc2ccc(Cl)cc2Cl)CN1c1c(Cl)cccc1Cl (configuration not stated) | ≤ 10
O=C1NCC(Cc2ccccc2)CN1c1c(Cl)cccc1Cl (configuration not stated) | ≤ 10
Nc1cc(Cl)c(N2CC(Cc3ccc(F)cc3F)CSC2=O)c(Cl)c1 (configuration not stated) | ≤ 10
COc1ccccc1OC1CCC(=O)N(c2c(Cl)ccnc2Cl)C1 (configuration not stated) | ≤ 10
C[C@@H]1C[C@H](Cc2ccc(F)cc2F)CN(c2c(Cl)cc([N+](=O)[O-])cc2Cl)C1=O | ≤ 10
CC(=O)N1CC(=O)N(c2c(Cl)cccc2Cl)CC1Cc1ccc(F)cc1F (configuration not stated) | ≤ 10
CNC1CCC(Cl)C(N2CC(Oc3ccc(F)cc3F)CCC2=O)C1Cl (configuration not stated) | ≤ 10
CN1CC(Cc2ccc(Cl)cc2)CN(c2c(Cl)cccc2Cl)C1=O (configuration not stated) | ≤ 10
O=C1CCC(Sc2ccccc2Cl)CN1c1c(Cl)ccnc1Cl (configuration not stated) | ≤ 10
O=C1COC(Cc2ccc(Cl)cc2)CN1c1c(Cl)cccc1Cl (configuration not stated) | ≤ 10
O=C(Cc1ccccc1)Nc1cc(Cl)c(N2CC(Sc3ccc(F)cc3F)CCC2=O)c(Cl)c1 (configuration not stated) | ≤ 10
Cc1cc(CCCN(C)C)cc(C)c1N1C[C@@H](Cc2ccc(F)cc2F)C[C@@H](C)C1=O | ≤ 10
O=C(Cc1ccccc1)Nc1ncc(Cl)c(N2CC(Sc3ccc(F)cc3F)CCC2=O)c1Cl (configuration not stated) | ≤ 10
O=C1CCC(Oc2ccccc2Cl)CN1c1c(Cl)ccnc1Cl (configuration not stated) | ≤ 10
CN(C)CCN(C(=O)OC(C)(C)C)c1cc(Cl)c(N2CC(Cc3ccc(F)cc3F)CCC2=O)c(Cl)c1 (configuration not stated) | ≤ 10
Nc1ccc(Cl)c(N2CC(Cc3ccc(F)cc3F)OCC2=O)c1Cl (configuration not stated) | ≤ 10
O=C1NCC(Cc2ccc3ccccc3c2)CN1c1c(Cl)cccc1Cl (configuration not stated) | ≤ 10
O=C1CCC(Sc2ccc(F)cc2)CN1c1c(Cl)csc1Cl (configuration not stated) | ≤ 10
O=C1SCC(Cc2ccc(F)cc2F)CN1c1c(Cl)cc(O)cc1Cl (configuration not stated) | ≤ 10
Nc1ccc(Cl)c(N2CC(Cc3ccc(F)cc3F)CCC2=O)c1 (configuration not stated) | ≤ 10

Compound | IC50 [µM]
Cc1ccccc1CC1CCC(=O)N(c2c(Cl)csc2Cl)C1 (configuration not stated) | ≤ 10
CNC(=O)CCc1cc(Cl)c(N2CC(Cc3ccc(F)cc3F)CCC2=O)c(Cl)c1 (configuration not stated) | ≤ 10
Cc1ccc(CC2COC(=O)N(c3c(Cl)cccc3Cl)C2)c(C)c1 (configuration not stated) | ≤ 10
COc1ccccc1CC1CSC(=O)N(c2c(Cl)cccc2Cl)C1 (configuration not stated) | ≤ 10
O=C1CSC(Cc2cccc3ccccc23)CN1c1c(Cl)cccc1Cl (configuration not stated) | ≤ 10
Cc1cc(C(=O)N2CCOCC2)cc(C)c1N1CC(Cc2ccc(F)cc2F)CCC1=O (configuration not stated) | ≤ 10
O=C1CCC(Cc2cccc3ccccc23)CN1c1c(Cl)csc1Cl (configuration not stated) | ≤ 10
O=C(Cc1ccccc1)Nc1cc(Cl)c(N2CC(Cc3ccc(F)cc3F)CSC2=O)c(Cl)c1 (configuration not stated) | ≤ 10
CC(=O)Nc1sc(Cl)c(N2CC(Sc3ccc(F)cc3F)CCC2=O)c1Cl (configuration not stated) | ≤ 10
C[C@@H]1C[C@H](Cc2ccc(F)cc2F)CN(c2c(Cl)cc(Br)cc2Cl)C1=O | ≤ 10
Cc1cc(C)cc(OC2CCC(=O)N(c3c(Cl)cncc3Cl)C2)c1 (configuration not stated) | ≤ 10
O=C1NCC(Cc2ccc(F)cc2F)CN1c1c(Cl)cc(Br)cc1Cl (configuration not stated) | ≤ 10
O=C1OCC(Cc2ccc(F)cc2F)CN1c1c(Cl)ccc(CO)c1Cl (configuration not stated) | ≤ 10
O=C1CCC(Oc2ccc(F)cc2F)CN1c1c(Cl)cnc(O)c1Cl (configuration not stated) | ≤ 10
O=C1CCC(Sc2ccc(F)cc2)CN1c1c(Cl)ccnc1Cl (configuration not stated) | ≤ 10
O=C1CCC(Cc2ccc(Cl)cc2Cl)CN1c1c(Cl)ccnc1Cl (configuration not stated) | ≤ 10
O=C1CCC(Oc2ccccc2F)CN1c1c(Cl)cncc1Cl (configuration not stated) | ≤ 20
CNc1ccc(Cl)c(N2CC(Cc3ccc(F)cc3F)COC2=O)c1Cl (configuration not stated) | ≤ 10
O=C1CCC(Sc2ccc(F)cc2F)CN1c1c(Cl)ccc(CO)c1Cl (configuration not stated) | ≤ 10
CN1CC(Cc2ccc(F)cc2F)CN(c2c(Cl)cc(O)cc2Cl)C1=O (configuration not stated) | ≤ 10
O=C1CCC(Cc2ccc(F)cc2F)CN1c1c(Cl)cc(N2C(=O)CCCC2=O)cc1Cl (configuration not stated) | ≤ 10
O=C1OCC(Cc2cc(Cl)cc(Cl)c2)CN1c1c(Cl)cccc1Cl (configuration not stated) | ≤ 10
O=C1CCC(Oc2ccc(F)cc2F)CN1C1C(Cl)CC(O)CC1Cl (configuration not stated) | ≤ 10

Compound | IC50 [µM]
CN1CCN(CCNc2cc(Cl)c(N3CC(Cc4ccc(F)cc4F)CCC3=O)c(Cl)c2)CC1 (configuration not stated) | ≤ 10
CNc1cnc(Cl)c(N2CC(Sc3ccc(F)cc3F)CCC2=O)c1Cl (configuration not stated) | ≤ 10
CN1CC(=O)N(c2c(Cl)cccc2Cl)CC1Cc1ccc(F)cc1F (configuration not stated) | ≤ 10
NC(=O)/C=C/c1cc(Cl)c(N2CC(Cc3ccc(F)cc3F)CCC2=O)c(Cl)c1 (configuration not stated) | ≤ 10
CCOC(=O)CCNC(=O)c1cc(C)c(N2CC(Cc3ccc(F)cc3F)CCC2=O)c(C)c1 (configuration not stated) | ≤ 10
CC(=O)Nc1cc(Cl)c(N2CC(Cc3ccc(F)cc3F)CN(C)C2=O)c(Cl)c1 (configuration not stated) | ≤ 10
Nc1sc(Cl)c(N2CC(Sc3ccc(F)cc3F)CCC2=O)c1Cl (configuration not stated) | ≤ 10
CC(=O)Nc1ccc(Cl)c(N2CC(Cc3ccc(F)cc3F)CSC2=O)c1Cl (configuration not stated) | ≤ 10
CNc1cc(Cl)c(N2CC(Cc3ccc(F)cc3F)OCC2=O)c(Cl)c1 (configuration not stated) | ≤ 10
Nc1cc(Cl)c(N2CC(C(=NO)c3ccc(F)cc3F)CCC2=O)c(Cl)c1 (configuration not stated) | ≤ 10
Nc1ccc(CC2CCC(=O)N(c3c(Cl)cccc3Cl)C2)cc1 (configuration not stated) | ≤ 10
O=C1CCC(Cc2ccc(F)cc2F)CN1c1c(Cl)ncc(O)c1Cl (configuration not stated) | ≤ 10
O=C1CCC(Oc2cc(F)cc(F)c2)CN1c1c(Cl)cncc1Cl (configuration not stated) | ≤ 10
O=C1CCC(Sc2ccc(F)cc2F)CN1C1C(Cl)CCC(O)C1Cl (configuration not stated) | ≤ 10
CNc1cc(Cl)c(N2CC(Oc3ccc(F)cc3F)CCC2=O)c(Cl)c1 (configuration not stated) | ≤ 10
O=C1CCC(Sc2ccccc2Cl)CN1c1c(Cl)cncc1Cl (configuration not stated) | ≤ 10
N[C@H]1C[C@@H](Cc2ccc(F)cc2F)CN(c2c(Cl)cccc2Cl)C1=O | ≤ 10
Cc1cc(C(=O)NCCN(C)C)cc(C)c1N1CC(Cc2ccc(F)cc2F)CNC1=O (configuration not stated) | ≤ 10
O=C(Cc1ccccc1)Nc1cc(Cl)c(N2CC(Cc3ccc(F)cc3F)OCC2=O)c(Cl)c1 (configuration not stated) | ≤ 10
CNc1ncc(Cl)c(N2CC(Cc3ccc(F)cc3F)CCC2=O)c1Cl (configuration not stated) | ≤ 10
